From patent publication EP4467141A1, “PYRAZOLO-QUINOLINES AS SELECTIVE INHIBITORS OF GENOTOXIC STRESS-INDUCED IKK/NF- KB PATHWAYS FOR CANCER THERAPY” (Max-Delbrück-Centrum für Molekulare Medizin in der …, priority 2023, dated 2024)

What was measured:
Experiment in all cases: Kinase panel study
Format in all cases: biochemical
Settings in all cases: read-out: Percentage of inhibition; for inhibition at 1 µM: 1000nM; for inhibition at 10 µM: 10000nM
EPHB2 = molecular target: T1, EPHB2 (Homo sapiens, UniProt P29323)
T1 construct: purchased Thermo Fisher Scientific
T1 sequence (P29323 19-1055): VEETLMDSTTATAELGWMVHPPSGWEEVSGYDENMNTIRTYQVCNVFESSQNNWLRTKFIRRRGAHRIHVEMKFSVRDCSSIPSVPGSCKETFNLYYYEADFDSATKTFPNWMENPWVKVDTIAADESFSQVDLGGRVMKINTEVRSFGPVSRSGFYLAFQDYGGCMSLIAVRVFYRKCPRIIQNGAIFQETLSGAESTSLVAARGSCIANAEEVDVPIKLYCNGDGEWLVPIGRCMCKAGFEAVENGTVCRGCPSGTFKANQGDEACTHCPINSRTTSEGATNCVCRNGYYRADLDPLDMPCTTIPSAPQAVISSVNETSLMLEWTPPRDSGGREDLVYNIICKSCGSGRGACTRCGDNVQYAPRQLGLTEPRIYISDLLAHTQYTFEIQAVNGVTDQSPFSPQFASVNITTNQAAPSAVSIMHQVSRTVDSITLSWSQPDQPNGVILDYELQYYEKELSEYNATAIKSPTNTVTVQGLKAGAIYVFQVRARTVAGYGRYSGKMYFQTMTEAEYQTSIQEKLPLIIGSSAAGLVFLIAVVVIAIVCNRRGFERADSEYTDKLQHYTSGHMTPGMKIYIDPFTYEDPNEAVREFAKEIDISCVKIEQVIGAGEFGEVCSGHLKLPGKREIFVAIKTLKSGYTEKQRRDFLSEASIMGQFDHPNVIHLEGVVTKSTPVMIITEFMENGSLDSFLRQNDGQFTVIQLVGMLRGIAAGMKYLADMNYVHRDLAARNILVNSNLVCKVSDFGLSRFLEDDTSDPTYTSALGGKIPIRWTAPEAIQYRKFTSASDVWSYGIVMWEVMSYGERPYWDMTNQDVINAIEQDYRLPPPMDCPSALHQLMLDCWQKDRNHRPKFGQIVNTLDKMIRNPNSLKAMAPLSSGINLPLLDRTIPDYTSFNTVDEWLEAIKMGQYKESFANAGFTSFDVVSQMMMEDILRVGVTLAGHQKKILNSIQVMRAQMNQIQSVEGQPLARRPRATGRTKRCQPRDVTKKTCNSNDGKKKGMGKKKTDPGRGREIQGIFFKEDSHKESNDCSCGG
In short: (§1)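 Percent inhibition of each kinase by the test compound, given at either 1 µM or 10 µM, came from a contracted panel run by ZLyte or Adapta protocol.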

PRKG2 (PKG2) = molecular target: T2, PRKG2 (PKG2) (Homo sapiens, UniProt Q13237)
T2 construct: purchased Thermo Fisher Scientific
T2 sequence (Q13237 1-762): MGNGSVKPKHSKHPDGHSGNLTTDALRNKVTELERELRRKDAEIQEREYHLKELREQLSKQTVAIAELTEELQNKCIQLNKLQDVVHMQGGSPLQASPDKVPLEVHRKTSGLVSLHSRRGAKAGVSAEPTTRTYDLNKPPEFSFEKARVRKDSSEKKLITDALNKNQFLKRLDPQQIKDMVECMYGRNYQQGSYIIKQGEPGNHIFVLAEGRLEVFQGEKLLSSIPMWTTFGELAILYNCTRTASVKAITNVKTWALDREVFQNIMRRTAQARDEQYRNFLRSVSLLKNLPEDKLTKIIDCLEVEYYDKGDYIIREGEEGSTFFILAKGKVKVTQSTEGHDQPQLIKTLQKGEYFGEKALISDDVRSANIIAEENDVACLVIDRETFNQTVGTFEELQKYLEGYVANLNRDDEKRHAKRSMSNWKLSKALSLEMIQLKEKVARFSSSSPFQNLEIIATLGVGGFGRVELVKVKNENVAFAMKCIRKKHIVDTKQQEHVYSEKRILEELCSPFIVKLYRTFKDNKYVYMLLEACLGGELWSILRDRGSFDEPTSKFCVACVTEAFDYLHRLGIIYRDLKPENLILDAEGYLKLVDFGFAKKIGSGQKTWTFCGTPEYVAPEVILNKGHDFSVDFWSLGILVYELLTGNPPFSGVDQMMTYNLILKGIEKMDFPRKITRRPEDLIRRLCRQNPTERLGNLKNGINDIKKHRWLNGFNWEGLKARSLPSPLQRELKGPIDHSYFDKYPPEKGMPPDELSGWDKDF
In short: as §1

RET A883F = molecular target: T3, RET A883F (Homo sapiens, UniProt P07949, A883F)
T3 construct: purchased Thermo Fisher Scientific
T3 sequence (P07949 29-1114 A883F): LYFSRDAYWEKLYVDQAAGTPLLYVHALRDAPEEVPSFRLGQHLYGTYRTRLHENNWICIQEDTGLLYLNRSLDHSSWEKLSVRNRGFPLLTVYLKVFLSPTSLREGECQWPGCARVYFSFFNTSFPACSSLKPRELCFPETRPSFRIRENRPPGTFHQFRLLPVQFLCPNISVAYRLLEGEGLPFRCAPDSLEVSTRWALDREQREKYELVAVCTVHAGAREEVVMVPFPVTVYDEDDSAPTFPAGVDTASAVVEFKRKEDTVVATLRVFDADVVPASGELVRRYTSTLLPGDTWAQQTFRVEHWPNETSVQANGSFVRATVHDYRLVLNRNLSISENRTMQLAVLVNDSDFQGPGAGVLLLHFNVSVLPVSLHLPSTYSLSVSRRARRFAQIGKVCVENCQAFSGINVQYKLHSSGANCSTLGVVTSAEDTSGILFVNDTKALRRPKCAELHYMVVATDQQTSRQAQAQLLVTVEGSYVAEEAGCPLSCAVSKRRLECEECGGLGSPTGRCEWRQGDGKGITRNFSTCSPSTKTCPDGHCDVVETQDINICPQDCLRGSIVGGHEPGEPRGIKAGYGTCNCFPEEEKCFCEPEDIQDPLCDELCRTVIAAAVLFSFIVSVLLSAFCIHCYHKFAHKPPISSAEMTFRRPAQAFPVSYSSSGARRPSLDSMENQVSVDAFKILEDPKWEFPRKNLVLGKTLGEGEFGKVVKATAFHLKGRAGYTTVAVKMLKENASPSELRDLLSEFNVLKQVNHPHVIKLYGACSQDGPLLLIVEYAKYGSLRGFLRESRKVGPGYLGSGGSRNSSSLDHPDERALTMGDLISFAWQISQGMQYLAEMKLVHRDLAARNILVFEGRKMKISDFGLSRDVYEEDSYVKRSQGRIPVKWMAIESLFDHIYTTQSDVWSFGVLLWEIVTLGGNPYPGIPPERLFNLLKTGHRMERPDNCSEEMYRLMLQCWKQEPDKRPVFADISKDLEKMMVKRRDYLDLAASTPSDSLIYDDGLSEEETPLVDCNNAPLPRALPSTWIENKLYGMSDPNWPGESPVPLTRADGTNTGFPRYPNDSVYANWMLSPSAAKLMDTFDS
In short: as §1

NEK6 = molecular target: T4, NEK6 (Homo sapiens, UniProt Q9HC98)
T4 construct: purchased Thermo Fisher Scientific
T4 sequence (Q9HC98 whole entry): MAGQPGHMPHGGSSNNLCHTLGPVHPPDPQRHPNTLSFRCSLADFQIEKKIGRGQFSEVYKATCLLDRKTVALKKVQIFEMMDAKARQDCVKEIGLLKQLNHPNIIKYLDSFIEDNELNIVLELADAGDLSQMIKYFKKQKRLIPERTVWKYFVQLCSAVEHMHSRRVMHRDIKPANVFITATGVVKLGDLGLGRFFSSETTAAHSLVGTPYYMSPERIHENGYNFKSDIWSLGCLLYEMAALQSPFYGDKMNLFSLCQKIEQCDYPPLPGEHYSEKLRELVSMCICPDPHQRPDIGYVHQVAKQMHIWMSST
In short: as §1

FGR = molecular target: T5, FGR (Homo sapiens, UniProt P09769)
T5 construct: purchased Thermo Fisher Scientific
T5 sequence (P09769 whole entry): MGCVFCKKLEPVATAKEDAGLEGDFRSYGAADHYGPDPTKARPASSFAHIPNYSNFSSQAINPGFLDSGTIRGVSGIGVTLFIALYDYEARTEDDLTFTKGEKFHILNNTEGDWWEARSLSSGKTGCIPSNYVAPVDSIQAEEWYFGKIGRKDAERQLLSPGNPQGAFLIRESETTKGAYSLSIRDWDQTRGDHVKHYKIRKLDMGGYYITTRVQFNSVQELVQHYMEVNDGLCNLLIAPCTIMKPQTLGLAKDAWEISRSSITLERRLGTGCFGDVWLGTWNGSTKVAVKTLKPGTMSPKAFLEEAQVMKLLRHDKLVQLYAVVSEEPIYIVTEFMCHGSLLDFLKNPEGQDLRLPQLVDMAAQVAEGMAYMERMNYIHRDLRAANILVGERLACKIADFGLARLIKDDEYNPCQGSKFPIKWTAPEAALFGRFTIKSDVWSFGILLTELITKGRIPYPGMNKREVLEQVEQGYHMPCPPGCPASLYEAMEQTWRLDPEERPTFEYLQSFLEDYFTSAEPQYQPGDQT
In short: as §1

| SMILES | inhibition at 1 µM (EPHB2) [%] | inhibition at 10 µM (EPHB2) [%] | inhibition at 1 µM (PRKG2 (PKG2)) [%] | inhibition at 10 µM (PRKG2 (PKG2)) [%] | inhibition at 1 µM (RET A883F) [%] | inhibition at 10 µM (RET A883F) [%] | inhibition at 1 µM (NEK6) [%] | inhibition at 10 µM (NEK6) [%] | inhibition at 1 µM (FGR) [%] | inhibition at 10 µM (FGR) [%] |
| --- | --- | --- | --- | --- | --- | --- | --- | --- | --- | --- |
| COc1ccc2c(c1OC)c(=O)n1c3ccc(O)cc3c3ccnc2c31 [MW01, 5-Hydroxy-10,11-dimethoxy-9H-benzo[c]indolo[3,2,1-ij][1,5]naphthyridin-9-one] | 10 | 17 | 47 | 72 | 10 | 24 | 4 | -4 | 10 | 26 |
| COc1ccc2cc3c(N)nn(C(=O)c4cccc(N(C)C)c4)c3nc2c1 [MW05, (3-Amino-7-methoxypyrazolo[3,4-b]quinolin-1-yl)-[3-(dimethylamino)phenyl]methanone] | 6 | 1 | 7 | 0 | 7 | 3 | 1 | -4 | 5 | 15 |
